In brackets after ≈: the same amount, converted by molar mass. Read-outs that look alike come from different tables or passages of the source.
Columns and labels:
DdlB from E.coli = DdlB from E.coli (Escherichia coli, UniProt P07862); assay: D-Alanine-D-alanine ligase (DdlB) enzyme inhibition, malachite green method; assay type: biochemical; settings: 37 °C, 30 min incubation, 5% DMSO
Procedure: The key enzyme involved in the peptidoglycan biosynthesis is D-alanine-D-alanine ligase (Ddl), making it an important target for drug discovery. Inhibition of DdlB as an essential enzyme in either Gram-positive or Gram-negative organisms leads to the loss of cell shape and integrity followed by bacterial death. The synthesized derivatives 4(a–f) and 6(a–f) were tested for their inhibitory activity on DdlB from E.coli. The results are presented as IC50 values.
The D-Ala-adding activity of DdlB ligase was monitored by the detection of orthophosphate generated during the reaction based on the colorimetric malachite green method described by Walsh et al.. […] All the compounds were soluble in the assay mixture containing 5% DMSO. After 30 min of incubation, 100 µL Biomol reagent was added. After 5 min, absorbance was read at 650 nm. Residual activity was calculated with respect to a similar assay without inhibitor. To exclude possible non-specific (promiscuous) inhibitors, representative compounds 4(a–f) and 6(a–f) were also tested in the presence of Tween (0.003%), Triton X-114 (0.005%), and SDS (420 µM), as described by McGovern et al.. No significant differences were found when compared to measurements without detergents.

Escherichia coli 1411 = assay: In vitro antibacterial activity (MIC100, two fold serial dilution, NCCLS); assay type: cell-based; settings: read-out: MIC100
Procedure: (§1) All the synthesized compounds 4(a–f) and 6(a–f) were screened for their in vitro antibacterial activity against Staphylococcus aureus (NCIM-2901), Escherichia coli 1411 (standard laboratory strains) and Escherichia coli SM1411 (an acrAB deficient derivative of 1411). Minimum inhibitory concentration (MIC100) values were determined using methods recommended by National Committee for Clinical Laboratory Standards (NCCLS). Dimethyl sulfoxide (DMSO) was used as solvent control.
(§2) All the synthesized compounds 4(a–f) and 6(a–f) were screened for their in vitro antibacterial activity against Staphylococcus aureus (NCIM-2901) and Escherichia coli 1411 (standard laboratory strains) and Escherichia coli SM1411 (an acrAB deficient derivative of 1411). Minimum inhibitory concentration (MIC100) values were determined using the method recommended by National Committee for Clinical Laboratory Standards (NCCLS). In vitro antibacterial activities of the synthesized compounds 4(a–f) and 6(a–f) were tested in Nutrient Broth (NB) for Bacteria by the two fold serial dilution method. Seeded broth (broth containing microbial spores) was prepared in NB from 24 h old bacterial cultures on nutrient agar (Hi-media) at 37 ± 1 °C. The bacterial suspension was adjusted with sterile saline to a concentration of […]. The synthesized compounds and standard drug D-cycloserine were prepared by two fold serial dilutions to obtain the required concentrations. The tubes were incubated in BOD incubators at 37 ± 1 °C for bacteria. The MICs were recorded by visual observations after 24 h (for bacteria) of incubation.

[1] = test system: Escherichia coli SM1411 (an acrAB deficient derivative of 1411); assay: as above; assay type: cell-based; settings: 24 h, read-out: MIC100
Procedure: as §1, §2

[2] = test system: Staphylococcus aureus (NCIM-2901); assay: as above; assay type: cell-based; settings: for MIC: Staphylococcus aureus
Procedure: as §1, §2

Cryptococcus neoformans = assay: In vitro antifungal activity (MIC100, CLSI/NCCLS); assay type: cell-based; settings: C. neo., average of three readings, read-out: MIC 100
Procedure: (§3) The newly synthesized derivatives 4(a–f) and 6(a–f) were screened for their in vitro antifungal activity against different yeast and filamentous fungal pathogens. Minimum inhibitory concentration (MIC100) values for in vitro antifungal activity were determined by the methods recommended by National Committee for Clinical Laboratory Standards (NCCLS). Miconazole was used as standard drug. Dimethyl sulfoxide (DMSO) was used as solvent control.
(§4) In vitro antifungal activity was determined as per CLSI (formerly, NCCLS) guidelines. […] The medium yeast nitrogen base was dissolved in phosphate buffer pH 7 and it was autoclaved at 110 °C for 10 min. With each set a growth control without the antifungal agent and solvent control DMSO were included. The fungal strains were freshly sub cultured on to Sabouraud dextrose agar (SDA) and incubated at 25 °C for 72 h. The fungal cells were suspended in sterile distilled water and diluted to get 10^5 cells/mL. Further, ten microlitres of the standardized suspension was inoculated onto the control plates and the media incorporated with the antifungal agents. The inoculated plates were incubated at 25 °C for 48 h. The readings were taken at the end of 48 h and 72 h. The MIC was the lowest concentration of drug preventing growth of macroscopically visible colonies on drug containing plates when there was visible growth on the drug free control plates.

Candida glabrata = assay: In vitro antifungal activity (MIC100, CLSI/NCCLS); assay type: cell-based; settings: Nakaseomyces glabratus; C. glab.; average of three readings; read-out: MIC 100
Procedure: as §3, §4

A. flavus = assay: In vitro antifungal activity (MIC100, CLSI/NCCLS); assay type: cell-based; settings: Aspergillus flavus; A. fla.; average of three readings; read-out: MIC 100
Procedure: as §3, §4

Fusarium oxysporum = assay: In vitro antifungal activity (MIC100, CLSI/NCCLS); assay type: cell-based; settings: F. oxy., average of three readings, read-out: MIC 100
Procedure: as §3, §4

Aspergillus niger = assay: In vitro antifungal activity (MIC100, CLSI/NCCLS); assay type: cell-based; settings: A. nig., average of three readings, read-out: MIC 100
Procedure: as §3, §4

Candida albicans = assay: In vitro antifungal activity (MIC100, CLSI/NCCLS); assay type: cell-based; settings: C. alb., average of three readings, read-out: MIC 100
Procedure: as §3, §4

Aspergillus fumigates = assay: In vitro antifungal activity (MIC100, CLSI/NCCLS); assay type: cell-based; settings: A. fum., average of three readings, read-out: MIC 100
Procedure: as §3, §4

[3] = NCIM2901, 24 h, read-out: MIC100, S. aureus NCIM-2901, average of three readings

Row | Compound | melting point [°C] | IC50 (DdlB from E.coli) [µM] | MIC (Escherichia coli 1411; Escherichia coli, 1411, 24 h) [µg/mL] | MIC [1] [µg/mL] | MIC [2, 3] [µg/mL] | MIC (Cryptococcus neoformans) [µg/mL] | MIC (Candida glabrata) [µg/mL] | MIC (A. flavus) [µg/mL] | MIC (Fusarium oxysporum) [µg/mL] | MIC (Aspergillus niger) [µg/mL] | MIC (Candida albicans) [µg/mL] | MIC (Aspergillus fumigates) [µg/mL] | MIC100 ([2]; S. aureus NCIM-2901, 24 h, average of three readings) [µg/mL] | MIC (Escherichia coli 1411; Escherichia coli, E. coli 1411, 24 h, average of three readings) [µg/mL] | MIC ([2]; NCIM2901, S. aureus NCIM-2901, 24 h, average of three readings, read-out: MIC100) [µg/mL]
1 | CCOC(=O)C1=C(C)NC(=O)NC1c1coc2ccc(OC)cc2c1=O (centres unmarked) [Compound 4d, Ethyl 4-(6-methoxy-4-oxo-4H-chromen-3-yl)-6-methyl-2-oxo-1,2,3,4-tetrahydropyrimidine-5-carboxylate] | 230 to 232 | 330 | 55 (≈ 153 µM) | 54 (≈ 151 µM) | > 200 | 24 (≈ 67 µM) | 38 (≈ 106 µM) | 20 (≈ 55.8 µM) | 36 (≈ 100 µM) | 20 (≈ 55.8 µM) | 34 (≈ 94.9 µM) | 36 (≈ 100 µM) |  |  | 
2 | CC1=C(C(=O)NN)C(c2coc3ccccc3c2=O)NC(=O)N1 (centres unmarked) [Compound 6a, 6-Methyl-2-oxo-4-(4-oxo-4H-chromen-3-yl)-1,2,3,4-tetrahydropyrimidine-5-carbohydrazide] | 256 to 258 | 127 | 34 (≈ 108 µM) | 32 (≈ 102 µM) | 66 (≈ 210 µM) | 58 (≈ 185 µM) | 68 (≈ 216 µM) | 68 (≈ 216 µM) | 76 (≈ 242 µM) | 55 (≈ 175 µM) | 78 (≈ 248 µM) | 60 (≈ 191 µM) |  |  | 
3 | CCOC(=O)C1=C(C)NC(=S)NC1c1coc2ccc(F)cc2c1=O (centres unmarked) [Compound 4f, Ethyl 4-(6-fluoro-4-oxo-4H-chromen-3-yl)-6-methyl-2-thioxo-1,2,3,4-tetrahydropyrimidine-5-carboxylate] | 228 to 230 | 280 | 48 (≈ 132 µM) | 44 (≈ 121 µM) | 72 (≈ 199 µM) | 30 (≈ 82.8 µM) | 44 (≈ 121 µM) | 34 (≈ 93.8 µM) | 48 (≈ 132 µM) | 34 (≈ 93.8 µM) | 46 (≈ 127 µM) | 55 (≈ 152 µM) |  |  | 
4 | CC1=C(C(=O)NN)C(c2coc3ccc(F)cc3c2=O)NC(=S)N1 (centres unmarked) [Compound 6d, 4-(6-Fluoro-4-oxo-4H-chromen-3-yl)-6-methyl-2-thioxo-1,2,3,4-tetrahydropyrimidine-5-carbohydrazide] | 146 to 148 | 111 | 16 (≈ 45.9 µM) | 18 (≈ 51.7 µM) | 32 (≈ 91.9 µM) | 28 (≈ 80.4 µM) | 40 (≈ 115 µM) | 30 (≈ 86.1 µM) | 44 (≈ 126 µM) | 28 (≈ 80.4 µM) | 44 (≈ 126 µM) | 52 (≈ 149 µM) | 40 (≈ 115 µM) |  | 
5 | CC1=C(C(=O)NN)C(c2coc3ccccc3c2=O)NC(=S)N1 (centres unmarked) [Compound 6b, 6-Methyl-4-(4-oxo-4H-chromen-3-yl)-2-thioxo-1,2,3,4-tetrahydropyrimidine-5-carbohydrazide] | 198 to 200 | 124 | 34 (≈ 103 µM) | 34 (≈ 103 µM) | 76 (≈ 230 µM) | 50 (≈ 151 µM) | 60 (≈ 182 µM) | 60 (≈ 182 µM) | 54 (≈ 163 µM) | 48 (≈ 145 µM) | 64 (≈ 194 µM) | 58 (≈ 176 µM) |  |  | 
6 | N[C@@H]1CON=C1O [D-Cycloserine, reference compound] |  | 276 |  | 16 (≈ 157 µM) |  |  |  |  |  |  |  |  |  | 16 (≈ 157 µM) | 32 (≈ 313 µM)
7 | CCOC(=O)C1=C(C)NC(=O)NC1c1coc2ccccc2c1=O (centres unmarked) [Compound 4a, Ethyl 6-methyl-2-oxo-4-(4-oxo-4H-chromen-3-yl)-1,2,3,4-tetrahydropyrimidine-5-carboxylate] | 270 to 272 | 158 | 46 (≈ 140 µM) | 40 (≈ 122 µM) | 64 (≈ 195 µM) | 60 (≈ 183 µM) | > 100 | 66 (≈ 201 µM) | 82 (≈ 250 µM) | 57 (≈ 174 µM) | > 100 | 65 (≈ 198 µM) |  |  | 
8 | CCOC(=O)C1=C(C)NC(=O)NC1c1coc2ccc(F)cc2c1=O (centres unmarked) [Compound 4c, Ethyl 4-(6-fluoro-4-oxo-4H-chromen-3-yl)-6-methyl-2-oxo-1,2,3,4-tetrahydropyrimidine-5-carboxylate] | 200 to 202 | 155 | 38 (≈ 110 µM) | 34 (≈ 98.2 µM) | 30 (≈ 86.6 µM) | 46 (≈ 133 µM) | 58 (≈ 167 µM) | 58 (≈ 167 µM) | 58 (≈ 167 µM) | 44 (≈ 127 µM) | 52 (≈ 150 µM) | 62 (≈ 179 µM) |  |  | 
9 | COc1ccc2occ(C3NC(=O)NC(C)=C3C(=O)NN)c(=O)c2c1 (centres unmarked) [Compound 6e, 4-(6-Methoxy-4-oxo-4H-chromen-3-yl)-6-methyl-2-oxo-1,2,3,4-tetrahydropyrimidine-5-carbohydrazide] | 208 to 210 | 315 | > 60 | 58 (≈ 168 µM) | 156 (≈ 453 µM) | 16 (≈ 46.5 µM) | 30 (≈ 87.1 µM) | 16 (≈ 46.5 µM) | 30 (≈ 87.1 µM) | 18 (≈ 52.3 µM) | 28 (≈ 81.3 µM) | 32 (≈ 92.9 µM) |  |  | 

— paper PMC6017654, “Ionic Liquid-Promoted Synthesis of Novel Chromone-Pyrimidine Coupled Derivatives, Antimicrobial Analysis, Enzyme Assay, Docking Study and Toxicity Study” (Molecules : A Journal of Synthetic Chemistry and Natural …, 2018)
